From ChEMBL document CHEMBL1130726, “Novel cytokine release inhibitors. Part III: Truncated analogs of tripterine” (Bioorg Med Chem Lett, 1998)
Values belong to the molecule of their own block, whether it stands above or below them.

How the values were obtained:
Assay type in all cases: functional
Homo sapiens [1] = species on record: Homo sapiens; assay: Inhibitory activity against LPS-stimulated IL-1 beta release from human monocytes
Homo sapiens [2] = species on record: Homo sapiens; assay: Compound was tested for inhibitory effect on LPS-stimulated IL-8 release from human monocytes
Homo sapiens [3] = species on record: Homo sapiens; assay: Compound was tested for inhibitory effect on LPS-stimulated IL-1 alpha release from human monocytes
Homo sapiens [4] = species on record: Homo sapiens; assay: Compound was tested for inhibitory effect on LPS-stimulated TNF-alpha release from human monocytes
Homo sapiens [5] = species on record: Homo sapiens; assay: Compound was tested for inhibitory effect on LPS-stimulated PGE-2 release from human monocytes
Homo sapiens [6] = species on record: Homo sapiens; assay: Compound was tested for inhibitory effect on LPS-stimulated IL-6 release from human monocytes
Homo sapiens [7] = species on record: Homo sapiens; assay: Compound was tested for inhibitory activity against LPS-stimulated IL-1 beta release from human monocytes at concentration 3000 nM
Homo sapiens [8] = species on record: Homo sapiens; assay: Compound was tested for inhibitory effect on LPS-stimulated IL-1 beta release from human monocytes
Homo sapiens [9] = species on record: Homo sapiens; assay: Compound was tested for inhibitory activity against LPS-stimulated IL-1 beta release from human monocytes; 80-700

Compound: CC(=O)Oc1cc2c(c(C)c1OC(C)=O)CC=C1C(C)(C)C(=O)CC[C@]12C
IC50 (Homo sapiens [1]): 200 nM

Compound: CC(=O)Oc1cc2c(cc1OC(C)=O)[C@]1(C)CCC(=O)[C@](C)(Cc3ccc(C(=O)O)cc3)[C@H]1CC2
inhibition at 3 µM (Homo sapiens [7]): 16%

Compound: CCOC(=O)C[C@@]1(C)C(=O)CC[C@@]2(C)c3cc(OC(C)=O)c(OC(C)=O)cc3CC[C@H]12
IC50 (Homo sapiens [1]): 2200 nM

Compound: Cc1c(O)c(O)cc2c1CC=C1C(C)(C)C(=O)CCC12C (stereo not drawn)
IC50 (Homo sapiens [1]): 300 nM

Compound: CC(=O)Oc1cc2c(c(C)c1OC(C)=O)CC=C1[C@@]2(C)CC[C@H]2OC(=O)C[C@]12C
IC50 (Homo sapiens [1]): 200 nM

Compound: CC1=C(O)C(=O)C=C2C1=CC=C1[C@@]2(C)CC[C@@]2(C)[C@@H]3C[C@](C)(C(=O)O)CC[C@]3(C)CC[C@]12C [CELASTROL]
IC50 (Homo sapiens [2]): 210 nM
IC50 (Homo sapiens [3]): 40 nM
IC50 (Homo sapiens [1]): 40 nM
IC50 (Homo sapiens [4]): 210 nM
IC50 (Homo sapiens [5]): 110 nM
IC50 (Homo sapiens [6]): 80 nM
IC50 (Homo sapiens [8]): 40 nM

Compound: CC(=O)Oc1cc2c(c(C)c1OC(C)=O)C=CC1=C(C)C(=O)CCC12C (stereo not drawn)
IC50 (Homo sapiens [2]): 930 nM
IC50 (Homo sapiens [3]): 220 nM
IC50 (Homo sapiens [1]): 700 nM
IC50 (Homo sapiens [4]): 500 nM
IC50 (Homo sapiens [5]): 600 nM
IC50 (Homo sapiens [6]): 400 nM
IC50 (Homo sapiens [8]): 180 nM

Compound: COc1cc2c(c(C)c1OC)C=CC1=C(C)C(=O)CCC12C (stereo not drawn)
IC50 (Homo sapiens [2]): 480 nM
IC50 (Homo sapiens [3]): 130 nM
IC50 (Homo sapiens [4]): 190 nM
IC50 (Homo sapiens [5]): 450 nM
IC50 (Homo sapiens [6]): 340 nM

Compound: CC1=C(O)C(=O)C=C2C1=CC=C1C(C)(C)C(=O)CCC21C (stereo not drawn)
IC50 (Homo sapiens [9]): 80 nM

Compound: CC(=O)Oc1cc2c(c(C)c1OC(C)=O)CCC1=C(C)C(=O)CCC12C (stereo not drawn)
IC50 (Homo sapiens [2]): 300 nM
IC50 (Homo sapiens [3]): 100 nM
IC50 (Homo sapiens [1]): 2400 nM
IC50 (Homo sapiens [4]): 190 nM
IC50 (Homo sapiens [5]): 200 nM
IC50 (Homo sapiens [6]): 250 nM
IC50 (Homo sapiens [8]): 80 nM

The remaining lines, values ahead:

IC50 (Homo sapiens [1]): 900 nM
Compound: CC(=O)Oc1cc2c(c(C)c1OC(C)=O)CC(C(C)=O)=C1[C@@]2(C)CC[C@H]2OC(=O)C[C@]12C

IC50 (Homo sapiens [2]): 1000 nM
IC50 (Homo sapiens [3]): 240 nM
IC50 (Homo sapiens [4]): 460 nM
IC50 (Homo sapiens [5]): 520 nM
IC50 (Homo sapiens [6]): 430 nM
Compound: COc1cc2c(c(C)c1OC)CCC(=O)C2C (stereo not drawn)

IC50 (Homo sapiens [1]): 100 nM
Compound: CC(=O)Oc1cc2c(c(C)c1OC(C)=O)CC=C1C(C)(C)[C@H](OC(C)=O)CC[C@]12C

IC50 (Homo sapiens [1]): 700 nM
Compound: COc1cc2c(c(C)c1O)CC=C1C(C)(C)C(=O)CCC12C (stereo not drawn)

IC50 (Homo sapiens [1]): 80 nM
Compound: CC(=O)Oc1cc2c(c(C)c1OC(C)=O)CC=C1[C@@]3(C)CCC(=O)C(C)=C3CC[C@]12C

IC50 (Homo sapiens [1]): 200 nM
Compound: CC(=O)Oc1cc2c(c(C)c1OC(C)=O)CC=C1C(C)(C)C(=O)CCC12C (stereo not drawn)

IC50 (Homo sapiens [1]): 140 nM
Compound: CC(=O)Oc1cc2c(cc1OC(C)=O)[C@]1(C)CC[C@H]3C(C)(C)C(=O)CC[C@]3(C)C1=CC2
